According to patent publication US20040248879A1, “Salts of tricyclic inhibitors of poly(ADP-ribose) polymerases” (Agouron Pharmaceuticals, Inc., priority 2003, published 2004):
Values after ≈ are worked out from the molar mass of the structure shown.

What was measured:
Water Solubility Assay = assay type: physicochemical; conditions: Milli Q water, room temperature, stirred 3 hours, HPLC; for solubility at 3 h: water, thermodynamic from solid
Procedure: The sample suspension was stirred at room temperature for 3 hours. The suspension was transferred into an eppendorf vial and centrifuged at 14000 rpm for 8 minutes. The supernant solution was then assayed by HPLC.
The suspension was stirred at room temperature for 3 hours and then centrifuged at 14000/min for 8 minutes. The supernant was diluted 10 times by Milli Q water. The final solution was then assayed by HPLC.
Accurately weigh out 2.5-3.0 mg of AG014447 reference standard into 10 ml volumetric flask, and then bring to volume with MeOH. Mix thoroughly.
Buffer: 25 mM ammonium phosphate buffer (pH 2.5)
Organic Modifier: Acetonitrile (ACN)
Column: Waters Symmetry C18, 4.6×150 mm, 5 μm;
The solubility of the sample is calculated by the equation below: […]
Where A is the peak area of the sample; As is the peak area of the standard; Cs is the concentration of the standard solution; D is the dilution factor. [drawing 2]

A549 cells = experiment: Cytotoxicity Potentiation Assay; assay type: cell-based; conditions: test compound 0.4 μm, with topotecan, ratio of IC50 of topotecan alone to IC50 in combination
Procedure: Cytotoxicity Potentiation Assay: A549 cells (ATCC, Rockville, Md.) were seeded into 96-well cell culture plates (Falcon brand, Fisher Scientific, Pittsburgh, Pa.) 16 to 24 hours before experimental manipulation. Cells were then treated with a test compound (or a combination of test compounds where indicated) for either 3 days or 5 days, at a concentration of 0.4 μm. At the end of treatments, relative cell number was determined either by MTT assay or SRB assay. For the MTT assay, 0.2 μg/μl of MTT (3-(4,5-dimethylthiazol-2-yl)-2,5-diphenyltetrazolium bromide, Sigma Chemical Co., St. Louis, Mo.) was added to each well of a plate, and the plate was incubated in a cell-culture incubator for 4 hours. Metabolized MTT in each well was solubilized in 150 μl of DMSO (Sigma Chemical Co.) with shaking and quantified with a Wallac 1420 Victor plate reader (EG&G Wallac, Gaithersburg, Md.) at 540 nm. For the SRB assay, cells were fixed with 10% trichloroacetic acid (Sigma Chemical Co) for an hour at 4° C. […] The bound dye was measured photometrically with the Wallac Victor plate reader at 515 nm. The ratio of the OD (optical density) value of a compound-treated culture to the OD value of a mock-treated culture, expressed in percentage, was used to quantify the cytotoxicity of a compound. […] For the compounds of the invention, PF50 values were determined by testing with topotecan.

solubility at 3 h (Water Solubility Assay) [µg/mL]	Solubility (Water Solubility Assay) [µg/mL]	Compound	further results
8800		CC(=O)O.CNCc1ccc(-c2[nH]c3cc(F)cc4c3c2CCNC4=O)cc1 [Acetate, 8-fluoro-2-(4-methylaminomethyl-phenyl)-1,3,4,5-tetrahydro-azepino[5,4,3-cd]indol-6-one Acetate]	
	180 (≈ 0.557 mM)	CNCc1ccc(-c2[nH]c3cc(F)cc4c3c2CCNC4=O)cc1 [Free base, 8-fluoro-2-(4-methylaminomethyl-phenyl)-1,3,4,5-tetrahydro-azepino[5,4,3-cd]indol-6-one]	Cytotoxicity Potentiation PF50 (A549 cells): 2.4
	>128000	CNCc1ccc(-c2[nH]c3cc(F)cc4c3c2CCNC4=O)cc1 [Gluconate, 8-Fluoro-2-(4-methylaminomethyl-phenyl)-1,3,4,5-tetrahydro-azepino[5,4,3-cd]indol-6-one Gluconate]	
	89000 (≈ 275 mM)	CNCc1ccc(-c2[nH]c3cc(F)cc4c3c2CCNC4=O)cc1 [Glucuronate, 8-Fluoro-2-(4-methylaminomethyl-phenyl)-1,3,4,5-tetrahydro-azepino[5,4,3-cd]indol-6-one Glucuronate]	
1600		CNCc1ccc(-c2[nH]c3cc(F)cc4c3c2CCNC4=O)cc1.Cl [Hydrochloride, 8-Fluoro-2-(4-methylaminomethyl-phenyl)-1,3,4,5-tetrahydro-azepino[5,4,3-cd]indol-6-one Hydrochloride]	
15500		CNCc1ccc(-c2[nH]c3cc(F)cc4c3c2CCNC4=O)cc1.CS(=O)(=O)O [Mesylate, 8-Fluoro-2-(4-methylaminomethyl-phenyl)-1,3,4,5-tetrahydro-azepino[5,4,3-cd]indol-6-one Mesylate]	
		CNCc1ccc(-c2[nH]c3cc(F)cc4c3c2CCNC4=O)cc1 [Phosphate, 8-Fluoro-2-(4-methylaminomethyl-phenyl)-1,3,4,5-tetrahydro-azepino[5,4,3-cd]indol-6-one Phosphate]	Solubility (Water Solubility Assay; Phosphate): 2800 µg/mL
1100		CNCc1ccc(-c2[nH]c3cc(F)cc4c3c2CCNC4=O)cc1.O=C(O)C(O)C(O)C(=O)O [Tartrate, 8-Fluoro-2-(4-methylaminomethyl-phenyl)-1,3,4,5-tetrahydro-azepino[5,4,3-cd]indol-6-one Tartrate]	
